# Assay results published in article PMC12514245, “Impaired migration and lung invasion of human melanoma by a novel small molecule targeting the transmembrane domain of death receptor p75^NTR” (EMBO Molecular Medicine, 2025).
# Where “and” joins values, the source holds several entries; their conditions need not be identical. Equal values may be shown once. Entries after “also recorded” stand apart in the source; their conditions may differ. Read-outs that look alike come from different tables or passages of the source.
# How the values were obtained:
# [1] = Cell viability (Presto Blue), A875 shp75; type: cell-based, human; settings: human, A875 shp75 cells, 2 days; for viability at 2 days, 1 uM: Div17E5 1 uM; for viability at 2 days, 1.5 uM: Div17E5 1.5 uM
# Procedure: To measure the cytotoxic effect of Div17E5, A875 NT or shp75 cells were seeded at 2000 cells per well (in 100 μL DMEM) in a 96-well plate and incubated for 12 h. Next, Div17E5 at various concentrations was added and incubated at 37 °C in 5% CO2 for 2 days. Following treatment, 10 μL Presto Blue® (resazurin, ThermoFIsher) was added to each well of the 96-well plate and incubated for 2 h at 37 °C in 5% CO2. Cellular fluorescence in each well was measured at 535 nm excitation and 615 nm emission using a microtiter plate reader. Data was converted into the relative cell viability (%) from the fluorescence of cells in each treatment relative to that of the DMSO control group (set as 100%).
# [2] = tested on: WM115 cells; test: Boyden chamber chemotaxis assay, WM115; type: cell-based, human; settings: for values normalized to vehicle, mean (Figure 6E): mean of EXP1-3; for values normalized to vehicle (Figure 6E): single experiments EXP1-3
# Procedure: For Boyden chamber assay, Corning® BioCoat™ Matrigel® Invasion Chambers 8.0 µm PET Membrane were used (cat. no. 354480). A875 NT or WM115 cells were serum-starved for 16 h and then seeded at 60,000 cells per well in serum-free media under different conditions, including DMSO (vehicle) or small molecules Div17E5 or Np75-4A22 at different concentrations to the top chamber of the Matrigel-coated trans-well chamber. The pan-caspase inhibitor Q_VD_poH (at 5 µM) was also introduced in the top chamber in some experiments. Two different chemoattractants, NGF (at 50 ng/ml or 100 ng/ml as indicated) or 10% FBS were added to the bottom chamber. Assays were carried out for 8 h after which filters were fixed in 4% PFA and stained with DAPI. Cells that had remained on the top of the filter were gently scrapped away with a cotton tip. The filter lower side was imaged on an inverted fluorescence microscope and counted using ImageJ software (NIH).
# [3] = molecular target: TMD of TNF receptor 2 (TNFR2) (Homo sapiens, UniProt P20333); test: 2D NMR chemical shift perturbation, TNFR2 TMD in bicelles; type: binding; settings: 4 molar excess compound
# TMD of TNF receptor 2 (TNFR2), sequence (P20333 258-290 limits assumed): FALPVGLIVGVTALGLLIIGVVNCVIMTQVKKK
# [4] = Plasma pharmacokinetics in mice; type: in vivo, C57BL/6 mice; settings: for Cmax: read-out: C0/Cmax; for Vd: read-out: Vss
# [5] = type: in vivo; settings: oral 200 mg/kg/day
# [6] = tested on: A875-NT melanoma xenograft; test: Melanoma lung invasion assay, A875-NT, delayed treatment 3 weeks after cell injection; type: in vivo, SCID mice
# Procedure: Finally, we investigated whether delayed administration of Np75-4A22 was able to affect engraftment and growth of metastatic tumors in the lung. To this end, drug treatment (orally at 200 mg/kg) was initiated 3 weeks after intravenous injection of A875-NT or A875-shp75 cells in female SCID mice and continued for additionally 4 weekly cycles (5 days on/2 days off) as above (Fig. 8E). Metastatic spread to the lungs was monitored weekly by bioluminescent imaging of luciferase-expressing melanoma cells. […] We conclude that Np75-4A22 can be efficacious at reducing the spread and seeding of melanoma cells in the lung when administered either before or after cell implantation.
# Eight-week-old female SCID mice (Charles River Laboratories, Shrewsbury, MA, USA) were housed in groups of three to five and maintained on a 12-h light/dark schedule with a temperature of 22 °C ± 1 °C and a relative humidity of 50% ± 5%. Food and water were available ad libitum. This research study was reviewed and approved by the University of Calgary Animal Care Committee (AC22-0054) and McGill University (AUP-JGH-8269) and adheres to established ethical principles and guidelines. A875-GFPLuc (A875-NT) or A875-GFPLuc shp75 (A875-shp75) cells harvested using Puck’s EDTA were resuspended in PBS and injected intravenously into SCID mice (5 × 10^5 cells/200 μl per mouse). Np75-4A22 was dissolved in 0.5% sodium carboxymethyl cellulose (NaCMC) in reverse osmosis H2O and administered by oral gavage at 200 mg/kg/day starting one day prior to intravenous (tail vein) injection of tumor cells and continued for 3 1-week cycles (cycle: 5 days on drug, 2 days off drug). Tumor spread to the lung was monitored weekly by luciferase activity using the Xenogen IVIS-200 Optical in vivo luciferase imaging system as described previously (Lun et al, [2016]) and by immunohistochemistry (IHC) at designated time points. IHC was performed after formalin fixation, paraffin embedding and sectioning of the lungs, using a human-specific mouse polyclonal nucleolin antibody (1:500 dilution) and detected using Dako liquid DAB+ Substrate Chromogen System (Dako: k3468, California, USA) followed by a hematoxylin counterstain (Sigma, Oakville, ON, Canada). Sections were mounted and imaged on an Olympus phase contrast microscope (Olympus Life Science, Tokyo, Japan). For immunofluorescence, sections were stained with anti-human nucleolin and anti-human p75NTR antibodies (1:1000 dilution), subsequently detected with 1:200 dilutions of Alexa Fluor™ 488 Goat anti-Mouse IgG (H + L) Highly Cross-Adsorbed Secondary Antibody and Alexa Fluor™ 568 Goat anti-Rabbit IgG (H + L) Cross-Adsorbed Secondary Antibody. Sections were further stained with DAPI to detect all nuclei. Between each treatment, TBS Automation Wash Buffer (Biocare Medical TWB945M) was employed. Images were taken with LSM800 confocal microscope and ZEN system.
# [7] = N=3, read-out: Cell Viability, Mean
# [8] = read-out: Cell Viability, n1-n3
# [9] = C57BL/6, mouse, IV 3 mg/kg, female, plasma
# [10] = C57BL/6, mouse, IV 3 mg/kg, male, plasma
# [11] = C57BL/6, mouse, PO 10 mg/kg, female, plasma
# [12] = C57BL/6, mouse, PO 10 mg/kg, male, plasma
compound,measurement,setting,value
Oc1ccc(-c2cncc(Nc3ccc(Br)c(Cl)c3)n2)cc1 [Div17E5],"viability at 2 days, 0.5 uM","[1]; Div17E5 0.5 uM, read-out: Cell Viability, n1-n3",101%
same,"viability at 2 days, 1 uM",[1]; [7],107%
same,"viability at 2 days, 1 uM",[1]; [8],101%
same,"viability at 2 days, 1.5 uM",[1]; [7],103%
same,"viability at 2 days, 1.5 uM",[1]; [8],107%
Cc1cccc(-c2cncc(Nc3ccc(Br)c(Cl)c3Cl)n2)c1C [Np75-4A22],"values normalized to vehicle, mean (Figure 6E)",[2]; 100 ng/ml NGF & 1 uM 4A22,1.0063
same,values normalized to vehicle (Figure 6E),[2]; 100 ng/ml NGF & 1 uM 4A22,0.9175 and 0.9379 and 1.163
same,spontaneous migration of WM115 cells,[2]; 1μM,without affecting the spontaneous migration
same,"values normalized to vehicle, mean (Figure 6E)",[2]; 1 uM 4A22,0.8431
same,values normalized to vehicle (Figure 6E),[2]; 1 uM 4A22,0.9343 and 0.8878 and 0.7073
same,NGF-induced migration of WM115 cells,"[2]; 1 μM, NGF 100 ng/ml",blocked this activity
same,"chemical shift perturbations, TNFR2 TMD",[3],essentially no interaction; also recorded: no or minimal chemical shift perturbations
same,AUC(0-t),[4]; [9],1670 ng·h/mL
same,Cmax,"[4]; C57BL/6, mouse, IV 3 mg/kg, female, plasma, back extrapolated",3400 ng/mL
same,clearance,"[4]; C57BL/6, mouse, IV 3 mg/kg, female, plasma, read-out: CL",29.5 mL/min/kg
same,half-life,"[4]; C57BL/6, mouse, IV 3 mg/kg, female, plasma, read-out: T1/2 (converted)",8.64 h
same,Vd,[4]; [9],3.23 L/kg
same,AUC(0-t),[4]; [10],2070 ng·h/mL
same,Cmax,"[4]; C57BL/6, mouse, IV 3 mg/kg, male, plasma, back extrapolated",4710 ng/mL
same,clearance,"[4]; C57BL/6, mouse, IV 3 mg/kg, male, plasma, read-out: CL",23.9 mL/min/kg
same,half-life,"[4]; C57BL/6, mouse, IV 3 mg/kg, male, plasma, read-out: T1/2 (converted)",7.45 h
same,Vd,[4]; [10],2.09 L/kg
same,AUC(0-t),[4]; [11],2680 ng·h/mL
same,Tmax,[4]; [11],0.5 h
same,bioavailability,[4]; [11],48%
same,Cmax,[4]; [11],1030 ng/mL
same,AUC(0-t),[4]; [12],4730 ng·h/mL
same,Tmax,[4]; [12],0.5 h
same,bioavailability,[4]; [12],69%
same,Cmax,[4]; [12],1310 ng/mL
same,clearance,"[4]; i.v. 3 mg/kg, male and female",low clearance
same,half-life,"[4]; i.v. 3 mg/kg, male and female",long half-life
same,absorption,"[4]; oral 10 mg/kg, male and female",rapid absorption
same,oral bioavailability,"[4]; oral 10 mg/kg, male and female, 10 mg/kg",good oral bioavailability; also recorded: high oral bioavailability
same,"mortality, repeated dose","[5]; 21 consecutive days, females and males",No mortality
same,"treatment-related effects, repeated dose, females","[5]; 21 days, females",mild decrease in lymphocyte cellularity and increase granulopoiesis
same,"treatment-related effects, repeated dose, males","[5]; 21 days, males",no treatment-related effects
same,"Average Photons/second/week, wk2","[6]; A875-NT, group average, wk2",7.77E+04 Photons/second
same,"Average Photons/second/week, wk3","[6]; A875-NT, group average, wk3",1.89E+05 Photons/second
same,"Average Photons/second/week, wk4","[6]; A875-NT, group average, wk4",1.70E+05 Photons/second
same,"Average Photons/second/week, wk5","[6]; A875-NT, group average, wk5",3.04E+05 Photons/second
same,"Average Photons/second/week, wk6","[6]; A875-NT, group average, wk6",8.45E+05 Photons/second
same,"Average Photons/second/week, wk7","[6]; A875-NT, group average, wk7",3.17E+06 Photons/second
same,"Photons/second/ mouse/week, wk2","[6]; A875-NT, individual mouse, wk2",7.00E+04 Photons/second and 7.88E+04 Photons/second and 6.89E+04 Photons/second and 1.01E+05 Photons/second and 8.02E+04 Photons/second and 7.86E+04 Photons/second and 8.67E+04 Photons/second and 5.74E+04 Photons/second
same,"Photons/second/ mouse/week, wk3","[6]; A875-NT, individual mouse, wk3",1.59E+05 Photons/second and 1.50E+05 Photons/second and 1.97E+05 Photons/second and 3.40E+05 Photons/second and 2.35E+05 Photons/second and 1.26E+05 Photons/second and 1.46E+05 Photons/second
same,"Photons/second/ mouse/week, wk4","[6]; A875-NT, individual mouse, wk4",1.44E+05 Photons/second and 1.39E+05 Photons/second and 1.26E+05 Photons/second and 1.15E+05 Photons/second and 2.32E+05 Photons/second and 2.12E+05 Photons/second and 2.11E+05 Photons/second and 1.82E+05 Photons/second
same,"Photons/second/ mouse/week, wk5","[6]; A875-NT, individual mouse, wk5",2.30E+05 Photons/second and 1.68E+05 Photons/second and 2.24E+05 Photons/second and 7.71E+05 Photons/second and 3.62E+05 Photons/second and 2.51E+05 Photons/second and 2.06E+05 Photons/second and 2.23E+05 Photons/second
same,"Photons/second/ mouse/week, wk6","[6]; A875-NT, individual mouse, wk6",1.70E+05 Photons/second and 6.38E+04 Photons/second and 3.70E+05 Photons/second and 3.16E+06 Photons/second and 2.58E+06 Photons/second and 1.54E+05 Photons/second and 1.46E+05 Photons/second and 1.19E+05 Photons/second
same,"Photons/second/ mouse/week, wk7","[6]; A875-NT, individual mouse, wk7",5.60E+05 Photons/second and 5.09E+05 Photons/second and 3.70E+06 Photons/second and 1.34E+07 Photons/second and 6.38E+06 Photons/second and 2.75E+05 Photons/second and 2.70E+05 Photons/second and 2.40E+05 Photons/second
same,"lung tumors (bioluminescent imaging), delayed treatment","[6]; oral 200 mg/kg, started 3 weeks after cell injection, 4 weekly cycles",reducing A875-NT lung tumors to very low levels
